What all share (assay type): in vivo
One data set has as its system Diabrotica balteata. Nature of the data set: Diabrotica balteata (corn root worm), maize sprouts sprayed. The note with it: 96 h, read-out: effect in at least one of the two categories (mortality or growth inhibition); for percent effect (mortality or growth inhibition) at 200 ppm: application rate 200 ppm, L2 larvae, 4 days after infestation. As for the experimental part:
Diabrotica balteata (Corn Root Worm)
Maize sprouts placed onto an agar layer in 24-well microtiter plates were treated with aqueous test solutions prepared from 10,000 ppm DMSO stock solutions by spraying. After drying, the plates were infested with L2 larvae (6 to 10 per well). The samples were assessed for mortality and growth inhibition in comparison to untreated samples 4 days after infestation.

In another data set the test system is Euschistus heros. Nature of the data set: Euschistus heros (neotropical brown stink bug), soybean leaves sprayed. The note with it: 120 h, read-out: effect in at least one of the two categories (mortality or growth inhibition); for percent effect (mortality or growth inhibition) at 200 ppm: application rate 200 ppm, N2 nymphs, 5 days after infestation. As for the experimental part:
Euschistus heros (Neotropical Brown Stink Bug)
Soybean leaves on agar in 24-well microtiter plates were sprayed with aqueous test solutions prepared from 10,000 ppm DMSO stock solutions. After drying the leaves were infested with N2 nymphs. The samples were assessed for mortality and growth inhibition in comparison to untreated samples 5 days after infestation.

For a further data set, the system named is Myzus persicae. The data set is described as follows: Myzus persicae (green peach aphid) feeding/contact activity. The note with it: 144 h. As for the experimental part:
Myzus persicae (Green Peach Aphid):Feeding/Contact Activity
Sunflower leaf discs were placed onto agar in a 24-well microtiter plate and sprayed with aqueous test solutions prepared from 10,000 ppm DMSO stock solutions. After drying, the leaf discs were infested with an aphid population of mixed ages. The samples were assessed for mortality 6 days after infestation.

Data set [1] deals with Plutella xylostella. Nature of the data set: Plutella xylostella (diamond back moth), artificial diet. The note with it: 120 h, read-out: effect in at least one of the two categories (mortality or growth inhibition); for percent effect (mortality or growth inhibition) at 200 ppm: application rate 200 ppm, L2 larvae, 5 days after infestation. As for the experimental part: Plutella xylostella (Diamond Back Moth)
24-well microtiter plates with artificial diet were treated with aqueous test solutions prepared from 10,000 ppm DMSO stock solutions by pipetting. After drying, the plates were infested with L2 larvae (10 to 15 per well). The samples were assessed for mortality and growth inhibition in comparison to untreated samples 5 days after infestation.

In data set [2] the test system is Spodoptera littoralis. The data set is described as follows: Spodoptera littoralis (Egyptian cotton leaf worm), cotton leaf discs. The conditions noted are these: foliar, 72 h; for percent control (mortality, anti-feedant effect or growth inhibition) at 200 ppm: application rate 200 ppm, L1 larvae, 3 days after infestation. The procedure:
Spodoptera littoralis (Egyptian Cotton Leaf Worm)
Cotton leaf discs were placed onto agar in 24-well microtiter plates and sprayed with aqueous test solutions prepared from 10,000 ppm DMSO stock solutions. After drying the leaf discs were infested with five L1 larvae. The samples were assessed for mortality, anti-feeding effect, and growth inhibition in comparison to untreated samples 3 days after infestation. Control of Spodoptera littoralis by a test sample is given when at least one of the categories mortality, anti-feedant effect, and growth inhibition is higher than the untreated sample.

In data set [3] the test system is Tetranychus urticae. The data set is described as follows: Tetranychus urticae (two-spotted spider mite) feeding/contact activity. The conditions noted are these: 192 h, read-out: mortality on mixed population (mobile stages). As for the experimental part:
(§1) Tetranychus urticae (Two-Spotted Spider Mite):Feeding/Contact Activity
Bean leaf discs on agar in 24-well microtiter plates were sprayed with aqueous test solutions prepared from 10,000 ppm DMSO stock solutions. After drying the leaf discs were infested with a mite population of mixed ages. The samples were assessed for mortality on mixed population (mobile stages) 8 days after infestation.

In data set [4] the test system is Thrips tabaci. Nature of the data set: Thrips tabaci (onion thrips) feeding/contact activity. The conditions noted are these: 144 h. As for the experimental part:
(§2) Thrips tabaci (Onion Thrips) Feeding/Contact Activity
Sunflower leaf discs were placed on agar in 24-well microtiter plates and sprayed with aqueous test solutions prepared from 10,000 ppm DMSO stock solutions. After drying the leaf discs were infested with a thrips population of mixed ages. The samples were assessed for mortality 6 days after infestation.

Data set [5] concerns Plutella xylostella. The data set is described as follows: Comparative Example C1: Plutella xylostella feeding/contact activity. As for the experimental part:
(§3) Compounds of the invention were tested alongside a number of compounds from WO 2013/026931.
Plutella xylostella (Diamond Back Moth):Feeding/Contact Activity
24-well microtiter plates with artificial diet were treated with aqueous test solutions prepared from 10,000 ppm DMSO stock solutions by pipetting. After drying, the plates were infested with L2 larvae (10 to 15 per well). The samples were assessed for mortality (%) 5 days after infestation at the various application rates

Data set [6] concerns Spodoptera littoralis. Nature of the data set: Comparative Example C2: Spodoptera littoralis feeding/contact activity. The note with it: 3 days after infestation. As for the experimental part:
as §3
Spodoptera littoralis (Egyptian Cotton Leaf Worm):Feeding/Contact Activity
Cotton leaf discs were placed onto agar in 24-well microtiter plates and sprayed with aqueous test solutions prepared from 10,000 ppm DMSO stock solutions. After drying the leaf discs were infested with five L1 larvae. The samples were assessed for mortality (%) 3 days after infestation at the various application rates.

In data set [7] the test system is Tetranychus urticae. The data set is described as follows: Comparative Example C3: Tetranychus urticae feeding/contact activity. The note with it: mobile stages, 8 days after infestation. The procedure: as §3, §1
Bean leaf discs on agar in 24-well microtiter plates were sprayed with aqueous test solutions prepared from 10,000 ppm DMSO stock solutions. After drying the leaf discs were infested with a mite population of mixed ages. The samples were assessed for mortality on mixed population (%) (mobile stages) 8 days after infestation at the various application rates.

In data set [8] the test system is Thrips tabaci. Nature of the data set: Comparative Example C4: Thrips tabaci feeding/contact activity. The note with it: 6 days after infestation. As for the experimental part: as §3, §2
Sunflower leaf discs were placed on agar in 24-well microtiter plates and sprayed with aqueous test solutions prepared from 10,000 ppm DMSO stock solutions. After drying the leaf discs were infested with a thrips population of mixed ages. The samples were assessed for mortality (%) 6 days after infestation at the various application rates.

Where [9] appears, read: application rate 200 ppm, mixed ages, 6 days after infestation, read-out: mortality.
Setting [10] is: application rate 200 ppm, 8 days after infestation.

Where two headings read alike, the source gives them in different places. A value given as a limit tells only on which side of the number the result lay.

As usually defined, the mortality is the percentage killed.

Turning to `Cc1cc(C2=NO[C@@](c3cc(Cl)cc(Cl)c3)(C(F)(F)F)C2)ccc1C(=O)NC1CN(S(=O)(=O)N(C)C)C1` [Compound A03, 4-[(5S)-5-(3,5-dichlorophenyl)-5-(trifluoromethyl)-4H-isoxazol-3-yl]-N-[1-(dimethylsulfamoyl)azetidin-3-yl]-2-methyl-benzamide], the percent effect (mortality or growth inhibition) at 200 ppm in the data set on Diabrotica balteata, in the data set with Euschistus heros and in the data set on Plutella xylostella [1] was at least 80% in each case. Besides, the mortality at 200 ppm in the data set on Myzus persicae (setting [9]), in the data set with Tetranychus urticae [3] (setting [10]) and in the data set on Thrips tabaci [4] (setting [9]) was at least 80% each time. In the data set with Spodoptera littoralis [2], this molecule registered a percent control (mortality, anti-feedant effect or growth inhibition) at 200 ppm of at least 80%.

With `Cc1cc(C2=NO[C@@](c3cc(Cl)cc(Cl)c3)(C(F)(F)F)C2)ccc1C(=O)NC1CN(S(=O)(=O)C2CC2)C1` [Compound A04, N-(1-cyclopropylsulfonylazetidin-3-yl)-4-[(5S)-5-(3,5-dichlorophenyl)-5-(trifluoromethyl)-4H-isoxazol-3-yl]-2-methyl-benzamide], the percent effect (mortality or growth inhibition) at 200 ppm in the data set on Diabrotica balteata, with Euschistus heros and in the data set on Plutella xylostella [1] was at least 80% in each case. Further, the percent control (mortality, anti-feedant effect or growth inhibition) at 200 ppm in the data set on Spodoptera littoralis [2] was at least 80%. Further, the mortality at 200 ppm in the data set on Tetranychus urticae [3] (setting [10]) was at least 80%.

As for `Cc1cc(C2=NOC(c3cc(Cl)cc(Cl)c3)(C(F)(F)F)C2)ccc1C(=O)NC1CN(S(=O)(=O)F)C1` (centres unmarked) [Compound A06], the “Plutella xylostella larval average mortality (%)” value is 80% in the data set with Plutella xylostella [5] (application rate 0.195 ppm); 100% with Plutella xylostella [5] (application rate 0.781 ppm); 100% in the data set on Plutella xylostella [5] (application rate 3.12 ppm); 100% in the data set with Plutella xylostella [5] (application rate 12.5 ppm); 100% in the data set on Plutella xylostella [5] (application rate 50 ppm); 100% with Plutella xylostella [5] (application rate 200 ppm). Also, the “Spodoptera littoralis larval average mortality (%)” value in the data set on Spodoptera littoralis [6] (application rate 0.195 ppm), with Spodoptera littoralis [6] (application rate 0.781 ppm), in the data set on Spodoptera littoralis [6] (application rate 3.12 ppm), in the data set with Spodoptera littoralis [6] (application rate 12.5 ppm), in the data set with Spodoptera littoralis [6] (application rate 50 ppm) and with Spodoptera littoralis [6] (application rate 200 ppm) was 100% each time. In addition, the “Tetranychus urticae mixed population average mortality (%)” value in the data set with Tetranychus urticae [7] (application rate 0.195 ppm) is on record as 0%; with Tetranychus urticae [7] (application rate 0.781 ppm), 100%; with Tetranychus urticae [7] (application rate 3.12 ppm), 100%; in the data set with Tetranychus urticae [7] (application rate 12.5 ppm), 100%; in the data set with Tetranychus urticae [7] (application rate 50 ppm) it was 100%; in the data set on Tetranychus urticae [7] (application rate 200 ppm), 100%. The “Thrips tabaci mixed population average mortality (%)” value in the data set with Thrips tabaci [8] (application rate 0.195 ppm) is 0%; in the data set on Thrips tabaci [8] (application rate 0.781 ppm) it was 100%; in the data set on Thrips tabaci [8] (application rate 3.12 ppm), 100%; with Thrips tabaci [8] (application rate 12.5 ppm), 100%; with Thrips tabaci [8] (application rate 50 ppm), 100%; with Thrips tabaci [8] (application rate 200 ppm), 100%.

In the case of `Cc1cc(C2=NO[C@@](c3cc(Cl)cc(C(F)(F)F)c3)(C(F)(F)F)C2)ccc1C(=O)NC1CN(S(=O)(=O)F)C1` [Compound A10, 3-[[4-[(5S)-5-[3-chloro-5-(trifluoromethyl)phenyl]-5-(trifluoromethyl)-4H-isoxazol-3-yl]-2-methyl-benzoyl]amino]azetidine-1-sulfonyl fluoride], the percent control (mortality or growth inhibition) at 200 ppm in the data set with Diabrotica balteata, in the data set on Euschistus heros and with Plutella xylostella [1] was at least 80% throughout. The mortality at 200 ppm in the data set on Myzus persicae was at least 80%; in the data set on Spodoptera littoralis [2] (read-out: control (mortality, anti-feedant effect, growth inhibition)), at least 80%; in the data set with Tetranychus urticae [3], at least 80%; with Thrips tabaci [4], at least 80%.

As for `Cc1cc(C2=NO[C@@](c3cc(Cl)c(F)c(Cl)c3)(C(F)(F)F)C2)ccc1C(=O)NC1CN(S(N)(=O)=O)C1` [Compound A12, 4-[(5S)-5-(3,5-dichloro-4-fluoro-phenyl)-5-(trifluoromethyl)-4H-isoxazol-3-yl]-2-methyl-N-(1-sulfamoylazetidin-3-yl)benzamide], the percent effect (mortality or growth inhibition) at 200 ppm with Diabrotica balteata, in the data set with Euschistus heros and in the data set with Plutella xylostella [1] was at least 80% in each case. Also, the mortality at 200 ppm in the data set with Myzus persicae (setting [9]), in the data set with Tetranychus urticae [3] (setting [10]) and in the data set on Thrips tabaci [4] (setting [9]) was at least 80% in each case. The molecule also displayed a percent control (mortality, anti-feedant effect or growth inhibition) at 200 ppm in the data set with Spodoptera littoralis [2] of at least 80%.

`Cc1cc(C2=NO[C@@](c3cc(Cl)c(F)c(Cl)c3)(C(F)(F)F)C2)ccc1C(=O)NC1CN(S(=O)(=O)N(CC(F)(F)F)CC(F)(F)F)C1` [Compound A13, N-[1-[bis(2,2,2-trifluoroethyl)sulfamoyl]azetidin-3-yl]-4-[(5S)-5-(3,5-dichloro-4-fluoro-phenyl)-5-(trifluoromethyl)-4H-isoxazol-3-yl]-2-methyl-benzamide]: the percent effect (mortality or growth inhibition) at 200 ppm in the data set on Diabrotica balteata and with Plutella xylostella [1] was at least 80% throughout. Further, the mortality at 200 ppm in the data set with Myzus persicae (setting [9]), in the data set with Tetranychus urticae [3] (setting [10]) and with Thrips tabaci [4] (setting [9]) was at least 80% throughout. Also, the percent control (mortality, anti-feedant effect or growth inhibition) at 200 ppm in the data set on Spodoptera littoralis [2] is at least 80%.

Regarding `Cc1cc(C2=NO[C@@](c3cc(Cl)cc(C(F)(F)F)c3)(C(F)(F)F)C2)ccc1C(=O)NC1CN(S(=O)(=O)OCC(F)(F)F)C1` [Compound A18, 2,2,2-trifluoroethyl 3-[[4-[(5S)-5-[3-chloro-5-(trifluoromethyl)phenyl]-5-(trifluoromethyl)-4H-isoxazol-3-yl]-2-methyl-benzoyl]amino]azetidine-1-sulfonate], the percent effect (mortality or growth inhibition) at 200 ppm in the data set on Diabrotica balteata, in the data set with Euschistus heros and in the data set with Plutella xylostella [1] was at least 80% in each case. The molecule also yielded a percent control (mortality, anti-feedant effect or growth inhibition) at 200 ppm in the data set on Spodoptera littoralis [2] of at least 80%. Also, the mortality at 200 ppm in the data set on Tetranychus urticae [3] (setting [10]) and in the data set with Thrips tabaci [4] (setting [9]) was at least 80% in each case.
